# Experimental data published in patent publication US7524853B2 (Solvay Pharmaceuticals B.V., priority 2003, dated 2009).
# What was measured:
# Format in all cases: cell-based
# [1] = biological target: T1, 17β-hydroxysteroid dehydrogenase type 1 (17β-HSD type 1) (Homo sapiens, UniProt P14061); assay: Inhibition of 17β-HSD type 1 in MCF-7 cells stably expressing the isoenzyme (tritium labeled estrone conversion, HPLC); conditions: MCF-7 cells expressing 17β-HSD type 1, 2 nM tritium labeled estrone; for inhibition at 1 µM / inhibition at 10 µM: MCF7; for inhibition at 1 µM / % Inhibition HSD1 1 μM: 1 μM test compound; for inhibition at 1 µM: read-out: % Inhibition HSD1 1 μM; for inhibition at 10 µM / % Inhibition HSD1 10 μM: 10 μM test compound; for inhibition at 10 µM: read-out: % Inhibition HSD1 10 μM
# T1 construct: expressed in transfected cells; host or cells: MCF-7
# T1 sequence (P14061 1-328): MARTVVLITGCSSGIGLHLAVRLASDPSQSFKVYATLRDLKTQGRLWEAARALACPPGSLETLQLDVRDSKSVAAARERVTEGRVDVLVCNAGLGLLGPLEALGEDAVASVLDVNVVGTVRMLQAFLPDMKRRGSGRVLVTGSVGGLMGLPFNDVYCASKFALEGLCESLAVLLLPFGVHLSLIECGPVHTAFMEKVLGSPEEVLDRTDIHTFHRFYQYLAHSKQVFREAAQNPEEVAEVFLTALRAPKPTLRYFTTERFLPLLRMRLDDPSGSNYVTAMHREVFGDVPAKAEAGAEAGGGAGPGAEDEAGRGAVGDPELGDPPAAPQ
# Method in brief: (§1)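 Compounds are tested at two concentrations on MCF-7 cells carrying a single 17β-HSD isoenzyme, with 2 nM tritiated estrone, estradiol or androstenedione as type 1, 2 or 3 substrate. Percent inhibition reflects lower conversion relative to a compound-free control.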
# [2] = biological target: T2, 17β-hydroxysteroid dehydrogenase type 3 (17β-HSD type 3) (Homo sapiens, UniProt P37058); assay: Inhibition of 17β-HSD type 3 in MCF-7 cells stably expressing the isoenzyme (tritium labeled androstenedione conversion, HPLC); conditions: MCF-7 cells expressing 17β-HSD type 3, 2 nM tritium labeled androstenedione; for inhibition at 1 µM / inhibition at 10 µM: MCF7; for inhibition at 1 µM / % Inhibition HSD3 1 μM: 1 μM test compound; for inhibition at 1 µM: read-out: % Inhibition HSD3 1 μM; for inhibition at 10 µM / % Inhibition HSD3 10 μM: 10 μM test compound; for inhibition at 10 µM: read-out: % Inhibition HSD3 10 μM
# T2 construct: expressed in transfected cells; host or cells: MCF-7
# T2 sequence (P37058 1-310): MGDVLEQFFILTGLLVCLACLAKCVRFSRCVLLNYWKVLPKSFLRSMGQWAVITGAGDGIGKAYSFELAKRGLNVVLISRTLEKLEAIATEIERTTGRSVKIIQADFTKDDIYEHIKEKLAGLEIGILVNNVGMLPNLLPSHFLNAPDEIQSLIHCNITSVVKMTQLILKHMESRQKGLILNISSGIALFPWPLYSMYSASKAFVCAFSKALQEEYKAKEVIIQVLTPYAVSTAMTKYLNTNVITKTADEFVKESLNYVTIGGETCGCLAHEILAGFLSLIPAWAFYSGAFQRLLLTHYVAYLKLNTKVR
# Method in brief: as §1
# [3] = biological target: T3, 17β-hydroxysteroid dehydrogenase type 2 (17β-HSD type 2) (Homo sapiens, UniProt P37059); assay: Inhibition of 17β-HSD type 2 in MCF-7 cells stably expressing the isoenzyme (tritium labeled estradiol conversion, HPLC); conditions: MCF-7 cells expressing 17β-HSD type 2, 2 nM tritium labeled estradiol; for inhibition at 1 µM / inhibition at 10 µM: MCF7; for inhibition at 1 µM / % Inhibition HSD2 1 μM: 1 μM test compound; for inhibition at 1 µM: read-out: % Inhibition HSD2 1 μM; for inhibition at 10 µM / % Inhibition HSD2 10 μM: 10 μM test compound; for inhibition at 10 µM: read-out: % Inhibition HSD2 10 μM
# T3 construct: expressed in transfected cells; host or cells: MCF-7
# T3 sequence (P37059 1-387): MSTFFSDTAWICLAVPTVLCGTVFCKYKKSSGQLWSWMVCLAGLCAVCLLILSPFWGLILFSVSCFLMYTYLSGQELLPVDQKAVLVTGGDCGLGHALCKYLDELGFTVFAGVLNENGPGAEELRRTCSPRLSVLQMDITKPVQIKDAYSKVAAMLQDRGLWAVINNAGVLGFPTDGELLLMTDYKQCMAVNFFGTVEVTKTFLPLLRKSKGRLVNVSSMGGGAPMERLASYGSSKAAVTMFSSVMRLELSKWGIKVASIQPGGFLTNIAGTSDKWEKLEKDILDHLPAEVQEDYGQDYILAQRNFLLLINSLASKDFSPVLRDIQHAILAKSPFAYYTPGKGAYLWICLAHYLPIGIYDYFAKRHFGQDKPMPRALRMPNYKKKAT
# Method in brief: as §1
Compound,inhibition at 1 µM [1],inhibition at 10 µM [1],inhibition at 1 µM [2],inhibition at 10 µM [2],inhibition at 1 µM [3],inhibition at 10 µM [3],% Inhibition HSD1 1 μM [1],% Inhibition HSD1 10 μM [1],% Inhibition HSD3 1 μM [2],% Inhibition HSD3 10 μM [2],% Inhibition HSD2 1 μM [3],% Inhibition HSD2 10 μM [3]
COc1cc(-c2nc3sc4c(c3c(=O)n2Cc2cccnc2)CCCC4)cc(OC)c1OC [No. 144],23.5%,33.7%,12.7%,19.3%,13.6%,31.1%,–,–,–,–,–,–
"COc1cc(-c2nc3sc4c(c3c(=O)n2Cc2ccccc2)CCCC4O)cc(OC)c1OC (stereo not drawn) [No. 145, 3-Benzyl-8-hydroxy-2-(3,4,5-trimethoxyphenyl)-5,6,7,8-tetrahydro-3H-benzo[4,5]thieno[2,3-d]pyrimidin-4-one]",23.6%,21.2%,19.2%,21.6%,25.9%,25.7%,–,–,–,–,–,–
"COc1ccc(-c2nc3sc4c(c3c(=O)n2Cc2ccccc2)CCC(Br)C4=O)cc1 (stereo not drawn) [No. 146, 3-Benzyl-7-bromo-2-p-methoxyphenyl-6,7-dihydro-3H,5H-benzo[4,5]thieno[2,3-d]pyrimidine-4,8-dione]",7.3%,50.9%,14.7%,37.9%,14.3%,5.1%,–,–,–,–,–,–
"COc1ccc(-c2nc3sc4c(c3c(=O)n2Cc2ccccc2)CCC(Br)(Br)C4=O)cc1 [No. 147, 3-Benzyl-7,7-dibromo-2-p-methoxyphenyl-6,7-dihydro-3H,5H-benzo[4,5]thieno[2,3-d]pyrimidine-4,8-dione]",11.4%,12.5%,10.3%,9.1%,0.1%,17.2%,–,–,–,–,–,–
"COCCn1c(-c2cccs2)nc2sc3c(O)c(Br)ccc3c2c1=O [No. 148, 7-Bromo-8-hydroxy-3-(2-methoxyethyl)-2-thiophen-2-yl-3H-benzo[4,5]thieno[2,3-d]pyrimidin-4-one]",27%,53.2%,53.7%,97.9%,29.1%,42%,–,–,–,–,–,–
"O=c1c2c(nc(-c3cccs3)n1CCO)sc1c(O)c(Br)ccc12 [No. 149, 7-Bromo-8-hydroxy-3-(2-hydroxyethyl)-2-thiophen-2-yl-3H-benzo[4,5]thieno[2,3-d]pyrimidin-4-one]",17.8%,18.3%,31%,59.8%,34.6%,29.9%,–,–,–,–,–,–
"COc1cc(-c2nc3sc4c(Cl)c(C=O)ccc4c3c(=O)n2Cc2ccccc2)c(Cl)c(OC)c1OC [No. 150, 3-Benzyl-8-chloro-2-(2-chloro-3,4,5-trimethoxyphenyl)-4-oxo-3,4-dihydro-benzo[4,5]thieno[2,3-d]pyrimidine-7-carbaldehyde]",0.4%,3.4%,-1.1%,22%,6.4%,11.4%,–,–,–,–,–,–
O=c1c2c(nc(CCC3CCCC3)n1CCc1ccccc1)sc1c(O)cccc12 [No. 627],–,–,–,–,–,–,25.2%,26.6%,10.7%,33.9%,27.1%,22.6%
CCCCC(CC)c1nc2sc3c(O)cccc3c2c(=O)n1CCc1ccccc1 (stereo not drawn) [No. 628],–,–,–,–,–,–,11.4%,32.4%,12.4%,36.1%,−0.9%,22.5%
COCc1nc2sc3c(O)cccc3c2c(=O)n1CCc1ccccc1 [No. 629],–,–,–,–,–,–,22.4%,33.1%,19.3%,35.9%,39.1%,71.7%
O=c1c2c(nc(-c3ccc(F)cc3F)n1CCc1ccccc1)sc1c(O)cccc12 [No. 630],–,–,–,–,–,–,25.1%,21.0%,10.9%,35.4%,24.7%,19.9%
"CCCCn1c(-c2ccccc2OC)nc2sc3c(O)cccc3c2c1=O [No. 633, 3-Butyl-8-hydroxy-2-(2-methoxy-phenyl)-3H-benzo[4,5]thieno[2,3-d]pyrimidin-4-one]",30.6%,60.9%,62.3%,91.7%,33.2%,64.6%,–,–,–,–,–,–
CCCCn1c(CCC2CCCC2)nc2sc3c(O)cccc3c2c1=O [No. 634],–,–,–,–,–,–,16.8%,17.9%,13.3%,56.4%,16.8%,20.1%
CCCCC(CC)c1nc2sc3c(O)cccc3c2c(=O)n1CCCC (stereo not drawn) [No. 635],–,–,–,–,–,–,4.9%,18.9%,11.6%,62.5%,15.4%,50.8%
O=c1c2c(nc(CCc3ccccc3)n1CCc1cccs1)sc1c(O)cccc12 [No. 639],–,–,–,–,–,–,22.6%,39.3%,33.6%,76.2%,18.2%,24.0%
O=c1c2c(nc(Cc3ccccc3)n1CCc1cccs1)sc1c(O)cccc12 [No. 641],–,–,–,–,–,–,20.4%,35.0%,13.2%,55.7%,10.5%,36.9%
O=c1c2c(nc(CCC3CCCC3)n1CCc1cccs1)sc1c(O)cccc12 [No. 643],–,–,–,–,–,–,15.7%,34.2%,23.4%,46.1%,20.1%,43.3%
CCCCC(CC)c1nc2sc3c(O)cccc3c2c(=O)n1CCc1cccs1 (stereo not drawn) [No. 644],–,–,–,–,–,–,29.8%,28.4%,13.9%,19.8%,27.6%,26.4%
COCc1nc2sc3c(O)cccc3c2c(=O)n1CCc1cccs1 [No. 645],–,–,–,–,–,–,17.2%,29.1%,21.7%,22.7%,48.8%,75.5%
CC(C)=Cc1nc2sc3c(O)cccc3c2c(=O)n1CCc1cccs1 [No. 648],–,–,–,–,–,–,18.0%,24.6%,17.7%,70.1%,16.0%,40.2%
O=c1c2c(nc(CCc3ccccc3)n1Cc1ccccc1)sc1c(O)cccc12 [No. 659],–,–,–,–,–,–,14.4%,35.4%,22.9%,76.1%,16.3%,33.9%
